One series is described as follows: Water solubility (pH 5). As to conditions: for solubility: pH 5, water; for Water solubility: pH 5.
Series [1] can be described thus: Pharmacokinetic study of Compound (VI) after topical administration (Example 14). The series is classed as in vivo, Dutch-Belted rabbits. As to conditions: BID for three days vs QD for three days, 1% dose. As for the experimental part:
A formulation prepared as described in example 13 was used. Compound (VI) was administered topically (50 μL) to rabbits either as BID for three days or QD for three days dose regimen (1% dose).

Series [2] has as its system VEGF-induced retinal permeability. Kind of series: Ocular model of retinal edema following eyedrops (Evans Blue albumin leakage). It is filed as in vivo. To be noted: mice. As for the experimental part:
Formulations prepared as described in Examples 20 and 21 were used in these studies. Topical eyedrops of Compound (V) (one time or three times a day), or Compound (VI) (single eye drop) were administered to mice. After 1-2 hr, VEGF was injected intravitreally into mouse eyes. An hour later Evans Blue dye was injected intravenously into the tail vein. About 4 hrs later animals were sacrificed, blood was collected and eyes were enucleated. VEGF-induced retinal permeability as measured by albumin leakage in the eye was measured.

For series [3], the system named is choroidal neovascularization. The series can be described thus: Laser-induced choroidal neovascularization model. The series is classed as in vivo, C57BL/6 mice. To be noted: for Reduction of area of neovascularization compared to control: topical. How it is done: After 2 weeks, mice were perfused with fluorescein-labeled dextran, and choroidal flatmounts were analyzed using image analysis software to recognize fluorescently stained neovascularization and calculate the total area of neovascularization per retina.

Series [4] in a line: Phospholipid affinity PC:Drug (molar). The series is classed as physicochemical. As to conditions: molar ratio PC:Drug.
The nature of series [5]: Pharmacokinetic study of Compound (XI) after topical administration (Example 3). It is filed as in vivo, Dutch-Belted rabbits. To be noted: eyedrops 1% API, 50 μL BID for 3 days; rabbit. How it is done: A formulation was prepared as in Example 1 but using Compound (XI) instead of Compound (V). Compound (XI) was administered as eyedrops (1% API, 50 μL) BID for 3 days. On day 3 following a single dose, rabbits were sacrificed, enucleated and various ocular tissues (retina, choroid, cornea, etc) collected. Concentrations in the tissues were measured using LC/MS/MS, following tissue homogenization and acetonitrile precipitation. PK data analysis was conducted using WINNONLIN program. […] Half-life was long at approximately 8 hours.

Series [6] is described as follows: Pharmacokinetic study of Compound (V) after topical administration (Example 4). It is filed as in vivo, Dutch-Belted rabbits. To be noted: 50 μL topical, 0.5% dose, QD for one day; rabbit. As for the experimental part: A formulation containing Compound (V) prepared as described in Example 1 was used in this experiment. 50 μL of Compound (V) (QD for one day) was administered topically to rabbits at 0.5% dose. Ocular tissues such as choroid, retina, sclera and cornea were collected and concentrations measured. Choroidal concentrations were 4 fold higher than retinal concentration.

Series [7] is described as follows: Pharmacokinetic study of Compound (VI) after topical administration (Example 8). It is filed as in vivo, Lone Evans rat pups. To be noted: Compound (V) analysed after single 10 μL eyedrops of 0.2, 0.5 or 1% Compound (VI). As for the experimental part: Formulations prepared as described in Example 5 were used. Rat pups were administered single 10 μL eyedrops of 0.2, 0.5 or 1% Compound (VI) dose. Eye tissues were collected at various time points for Compound (V) analysis using LC/MS/MS. […] Half-life of Compound (V) ranged from 5 to 8 hours in the choroids.

Series [8] is described as follows: Pharmacokinetic study of Compounds (X) and (VIII) after topical administration (Example 12). It is filed as in vivo, Dutch-Belted rabbits. As to conditions: Compound (V) after prodrug Compound (VIII) delivered topically to the eye. As for the experimental part: Formulations prepared as described in Example 9 and 11 were used. Compounds (X) and (VIII) were administered as eyedrops (50 μL) either as QD for three days or BID for three days as the dose regimen.
The retinal concentrations varied depending on the formulation used. The cLogD at pH of 7.4 for Compound (VIII) is 0.14 while for Compound (X) is 3.54.

≈ marks a conversion by molar mass, not a printed value.

In “Water solubility (pH 5)” (water), `Cc1cccc(C)c1-c1cc(C)c2nc(Nc3ccc(S(=O)(=O)NCCN4CCCC4)cc3)nnc2c1` [XIII] yielded a solubility of under 0.1 mg/mL.
For the compound `C=CC[C@@H]1/C=C(\C)C[C@H](C)C[C@H](OC)[C@H]2O[C@@](O)(C(=O)C(=O)N3CCCC[C@H]3C(=O)O[C@H](/C(C)=C/[C@@H]3CC[C@@H](O)[C@H](OC)C3)[C@H](C)[C@@H](O)CC1=O)[C@H](C)C[C@@H]2OC` [Tacrolimus, reference compound], in “Water solubility (pH 5)” (water), the solubility is under 0.1 mg/mL.
Consider `CC(C)CCC[C@@H](C)[C@H]1CC[C@H]2[C@@H]3CC=C4C[C@@H](O)CC[C@]4(C)[C@H]3CC[C@]12C` [Cholesterol, reference compound], for which, in the series “Water solubility (pH 5)” (water), the solubility is under 1 mg/mL.
The same measure, in the same setting: next, `COc1cc(Nc2c(C#N)cnc3cc(OCCCN4CCN(C)CC4)c(OC)cc23)c(Cl)cc1Cl` [SKI606, reference compound]: under 1 mg/mL.
In the case of `CP(C)(=O)c1ccc(Nc2nc(C3CCCC3)nc3c2ncn3CCc2cccc(O)c2)cc1` [AP23464, reference compound], the Water solubility in “Water solubility (pH 5)” is given as over 0.1 mg/mL.
`CC(C)NCC(O)COc1cccc2ccccc12` (stereo not drawn) [propanolol, reference compound]: the solubility in “Water solubility (pH 5)” is about 0.1 mg/mL (≈ 386 µM).
The compound `Cc1cccc(C)c1-c1cc(C)c2nc(Nc3ccc(OCCN4CCCC4)cc3)nnc2c1` [IV] displayed a solubility in “Water solubility (pH 5)” (water) of under 0.1 mg/mL.
The same measure, in the same setting: next, `Cc1cc(-c2cc(O)ccc2Cl)cc2nnc(Nc3ccc(S(=O)(=O)NCCN4CCCC4)cc3)nc12` [VII]: under 0.1 mg/mL; `O=C(Nc1cnc(Nc2cccc(OCCN3CCCC3)c2)nc1)c1c(Cl)cccc1Cl` [I]: under 0.1 mg/mL.
On the same count and under the same terms, the result for `Cc1cc(-c2cc(O)ccc2Br)cc2nnc(Nc3ccc(S(=O)(=O)NCCN4CCCC4)cc3)nc12` [XV] reads under 0.1 mg/mL; that for `CC(=O)Oc1ccc(Cl)c(-c2cc(C)c3nc(Nc4ccc(OCCN5CCCC5)cc4)nnc3c2)c1` [XVII], under 0.1 mg/mL; that for `Cc1cc(-c2c(Cl)ccc(O)c2Cl)cc2nnc(Nc3ccc(S(=O)(=O)NCCN4CCCC4)cc3)nc12` [XVI], under 0.1 mg/mL.
As for `Cc1cc(-c2cc(OC(=O)c3ccccc3)ccc2Cl)cc2nnc(Nc3ccc(OCCN4CCCC4)cc3)nc12` [VI], the “Back of the eye concentrations, dependence on dose regimen” value in [1] is given as “linear”. In series [2] (QD eyedrop administration), the “Inhibition of retinal leak” value came to 100%. Also, the “Reduction of area of neovascularization compared to control” value in series [3] (50 μg per eye) is reported as “approximately 47%”; in [3] (150 μg per eye), “approximately 35%”. The “Effect on choroidal neovascularization (FIG. 2)” value in series [3] (topical administration) was “prevents choroidal neovascularization”. Besides, the solubility in “Water solubility (pH 5)” (water) is under 0.1 mg/mL.
In the series “Water solubility (pH 5)” (water), `Cc1cc(-c2cc(OC(=O)C(C)(C)C)ccc2Cl)cc2nnc(Nc3ccc(OCCN4CCCC4)cc3)nc12` [X] showed a solubility of under 0.1 mg/mL.
The same measure, in the same setting: next, `Brc1c(NC2=NCCN2)ccc2nccnc12` [Brimonidine, reference compound]: over 2 mg/mL.
As to `CC(=O)Nc1nnc(S(N)(=O)=O)s1` [Acetazolamide, reference compound], the solubility in the series “Water solubility (pH 5)” (water) is under 1 mg/mL.
With `Cc1cc(Nc2ncc3cc(-c4c(Cl)cccc4Cl)c(=O)n(C)c3n2)ccc1F` [PD180970, reference compound], in the series “Water solubility (pH 5)”, the Water solubility is given as <<0.1 mg/mL.
In “Water solubility (pH 5)” (water), `Cc1cc(-c2cc(OC(=O)c3ccccc3)ccc2Cl)cc2nnc(Nc3ccc(S(=O)(=O)NCCN4CCCC4)cc3)nc12` [XVIII] displayed a solubility of under 0.1 mg/mL.
In turn, `Nc1nc(O)c2nc(-c3cccc(O)c3)c(-c3cccc(O)c3)nc2n1` [XXI] gave a solubility in “Water solubility (pH 5)” (water) of under 0.1 mg/mL.
`Cc1ccc(-c2nn(C(C)(C)C)c3ncnc(N)c23)cc1` [PP1, reference compound] gave a Water solubility in “Water solubility (pH 5)” of under 0.1 mg/mL.
Consider `Cc1cc(-c2cc(OP(=O)([O-])[O-])ccc2Cl)cc2nnc(Nc3ccc(OCCN4CCCC4)cc3)nc12.[Na+].[Na+]` [XII], for which the solubility in the series “Water solubility (pH 5)” (water) was under 0.1 mg/mL.
On to `Cc1ccc(C(=O)Oc2ccc(Cl)c(-c3cc(C)c4nc(Nc5ccc(OCCN6CCCC6)cc5)nnc4c3)c2)cc1` [XIX], for which the solubility in “Water solubility (pH 5)” (water) was under 0.1 mg/mL.
For `COc1ccc(Cl)c(Nc2ncnc3cc(OCC4CCN(C)CC4)c(OC)cc23)c1` [AZM475271, reference compound], the “Phospholipid affinity PC: Drug (molar)” value in series [4] was determined as 50.73. The solubility in the series “Water solubility (pH 5)” (water) is under 0.1 mg/mL.
Consider `Cc1cc(-c2cc(O)ccc2Cl)cc2nnc(Nc3ccc(OCCN4CCCC4)cc3)nc12` [V], for which the “Concentrations in the choroid” value in [5] is given as “at the μM level”. Also, in series [6], the “Choroidal concentration relative to retinal concentration” value was found to be 4 fold and the “Half-life (comparison)” value was “about two times longer”. In addition, in [7], the “Concentrations in the retina, dose dependence” value is given as “non-linear” and the “Mean AUC in the choroid, dose dependence” value is “linear”. For the same compound, in [8], the “Amount of API recovered from the retina and the choroid” value is “No measurable amount”. For the same compound, the “Inhibition of retinal leak” value in [2] (QD eyedrop administration) is reported as 50%. Further, in [2] (TID eyedrop dosing), the “Inhibition of retinal leak” value was about 80%. Moreover, in the series “Water solubility (pH 5)” (water), the solubility was under 0.1 mg/mL.
Consider `CCN(CC)CCNC(=O)c1c(C)[nH]c(/C=C2\C(=O)Nc3ccc(F)cc32)c1C` [Su11248, reference compound], for which the solubility in “Water solubility (pH 5)” (water) was over 1 mg/mL.
In the series “Water solubility (pH 5)” (water), `Cc1cc(-c2c(Cl)cccc2Cl)cc2nnc(Nc3ccc(OCCN4CCCC4)cc3)nc12` [XI] showed a solubility of under 0.1 mg/mL.
`Cc1cc(-c2cc(OC(=O)C(C)C)ccc2Cl)cc2nnc(Nc3ccc(OCCN4CCCC4)cc3)nc12` [XX] yielded a solubility in “Water solubility (pH 5)” (water) of under 0.1 mg/mL.
For `Clc1ccc(Nc2nnc(Cc3ccncc3)c3ccccc23)cc1` [Vatalanib, reference compound], the “Phospholipid affinity PC: Drug (molar)” value in series [4] was “Not stable”. The solubility in “Water solubility (pH 5)” (water) was over 2 mg/mL.
In the series “Water solubility (pH 5)”, `CC1(C)O[C@@H]2C[C@H]3[C@@H]4CCC5=CC(=O)C=C[C@]5(C)[C@@]4(F)[C@@H](O)C[C@]3(C)[C@]2(C(=O)CO)O1` [TAA, reference compound] came in with a Water solubility of under 0.1 mg/mL.
In the case of Tropicamide [reference compound], in the series “Water solubility (pH 5)”, the Water solubility is under 1 mg/mL.

The term solubility denotes the concentration that dissolves in the medium under given conditions.

The values are drawn from patent US20060292203A1, “Methods and compositions for the treatment of ocular disorders” (TargeGen, Inc., priority 2005, published 2006).
